Patent US4451465A, “Anti-obesity agents” (John Wyeth & Brother Ltd., priority 1981, dated 1984)

Experiments:
[1] = system: noradrenaline (NA) uptake into brain slices; test: inhibition of noradrenaline uptake in brain slices; type: cell-based, rat (adult male Sprague-Dawley); settings: mean ± S.E. mean of 6 experiments; rat brain slices
Protocol: (§1) In one procedure for testing for potential thermogenic activity the compounds are tested for their ability to inhibit noradrenaline uptake in rat brown adipose tissue (BAT). Compounds that have a specific thermogenic effect without having undesirable central effects should inhibit BAT noradrenaline (NA) uptake at lower concentrations than those required to inhibit corresponding NA uptake in the brain. In another procedure for testing for thermogenic activity the compounds are investigated for their effect on the activity of sodium potassium activated, magnesium dependent adenosinetriphosphatase (Na^+, K^+ -ATPase) in rat BAT fractions.
(§2) In the above mentioned procedures adult male Sprague-Dawley rats were used. Homogenates of BAT were prepared by homogenising interscapular BAT. Microsomal material was separated by centrifugation of the BAT homogenate. Measurement of NA uptake into BAT and brain slices was carried out using radiolabelled noradrenaline (based upon the procedure of Sugden, Br. J. Pharmac., 1974,51, 467-469). Adenosinetriphosphate activities were measured by monitoring the release of inorganic phosphate from ATP. Na^+, K^+ -ATPase was calculated as the difference between total and sodium ATPase.

[2] = biological target: BAT homogenate Na^+, K^+ -ATPase; test: stimulation of Na^+, K^+ -ATPase in BAT homogenate; type: biochemical, rat (adult male Sprague-Dawley); settings: for IC50: homogenate, read-out: IC50 for stimulation (to 50% maximum) of BAT Na^+,K-ATP-ase, homogenate
Protocol: as §1, §2

[3] = system: male rats; test: chronic (28 day) administration to male rats: body weight and food intake; type: in vivo, rat; settings: 28 days
Text: The anti-obesity activity of (±)-2,3,4,10-tetrahydro-3,3-dimethyl-10-phenylpyrimido[1,2-a]indol-10-ol has been confirmed by chronic (28 day) administration to male rats. The animals were fed on a standard pelleted diet and the active agent was introduced into the water supply. Body weight, food and water intake and behaviour were monitored over the next four weeks.

[4] = system: noradrenaline (NA) uptake in rat brown adipose tissue (BAT); test: inhibition of noradrenaline uptake in BAT; type: cell-based, rat (adult male Sprague-Dawley); settings: for IC50: mean ± S.E. mean of 6 experiments, rat BAT
Protocol: In one procedure for testing for potential thermogenic activity the compounds are tested for their ability to inhibit noradrenaline uptake in rat brown adipose tissue (BAT). […] In another procedure for testing for thermogenic activity the compounds are investigated for their effect on the activity of sodium potassium activated, magnesium dependent adenosinetriphosphatase (Na^+, K^+ -ATPase) in rat BAT fractions.
as §2, with “Measurement of NA uptake into BAT and brain slices was carried out using radiolabelled noradrenaline (based upon the procedure of Sugden, Br. J. Pharmac., 1974,51, 467-469).” left out

[5] = biological target: BAT microsomal Na^+, K^+ -ATPase; test: stimulation of Na^+, K^+ -ATPase in BAT microsomal fraction; type: biochemical, rat (adult male Sprague-Dawley)
Protocol: as §1, §2

[6] = system: brown adipose tissue; test: thermogenic activity (pharmacological testing); design: species or system rat; settings: compared with corresponding (+)-enantiomers
Protocol: as §1, §2

[7] = system: rats; test: signs of CNS arousal in rats; type: in vivo, rat; settings: dosages as high as 30 mg/kg p.o.
Text: (§3) It is also known that there is a good correlation between BAT homogenate Na^+, K^+ -ATPase activity and the resting metabolic rate (see, for example, Rothwell, Stock and Wyllie, Biochem. Pharmacol., 1981, 30, 1709-1712) and those compounds, such as the agents of the present invention that activate BAT Na^+ K^+ -ATPase activity are indicated as useful as thermogenic agents and can be used in the treatment of obesity.

[8] = system: rats; test: resting metabolic rate (resting oxygen consumption) in rats; type: in vivo, rat
Text: as §3

Structure (SMILES)	IC50 [1]	IC50 [2]	weight gain compared to controls ([3]; 3.5 mg/kg/day in water supply)	weight gain compared to controls ([3]; 6.5 mg/kg/day in water supply)	body weight ([3]; 10.8 mg/kg/day in water supply)	food intake ([3]; 3.5, 6.5 and 10.8 mg/kg/day in water supply)	IC50 [4]	IC50 for stimulation (to 50% maximum) of BAT Na^+,K-ATP-ase, microsomal fraction [5]	activity as thermogenic agents, (-) versus (+)-enantiomers [6]	signs of CNS arousal [7]	stimulation of homogenate Na^+, K^+ -ATPase ([2]; BAT homogenate)	potency in inhibiting NA uptake into BAT versus brain slices ([4]; BAT compared with brain slices)	resting metabolic rate (resting oxygen consumption) [8]	direct stimulation of BAT microsomal Na^+, K^+ -ATPase ([5]; BAT microsomal)
CC1(C)CN=C2N(C1)c1ccccc1C2(O)c1ccccc1 (racemic) [(±), (±)-2,3,4,10-tetrahydro-3,3-dimethyl-10-phenylpyrimido[1,2-a]indol-10-ol]	3400 nM	43 nM	reduced weight gain	reduced weight gain	weight loss	no significant effect on food intake	28 nM	none at 10^-4						
CC1(C)CN=C2N(C1)c1ccccc1C2(O)c1ccccc1 (single isomer, unassigned; (-)) [(-), (-)-2,3,4,10-Tetrahydro-3,3-dimethyl-10-phenylpyrimido[1,2-a]indol-10-ol]	2400 nM	32 nM					18 nM	none at 10^-4	more active, as thermogenic agents, than the corresponding (+)-enantiomers					
CC1(C)CN=C2N(C1)c1ccccc1C2(O)c1ccccc1 (stereo not drawn) [compound of the invention, 2,3,4,10-tetrahydro-3,3-dimethyl-10-phenylpyrimido[1,2-a]indol-10-ol]										did not produce signs of CNS arousal	significant stimulation	considerably more potent in inhibiting NA uptake into BAT than into brain slices	increases the resting metabolic rate	did not directly stimulate
